Results reported in PMC11284800 (Journal of Medicinal Chemistry, 2024).
Where “and” joins values, the source holds several entries; their conditions need not be identical. Equal values may be shown once. Read-outs that look alike come from different tables or passages of the source.

Assays:
[1] = target: hCB1R; settings: cited from earlier work
[2] = target: CB1R; settings: cited from earlier work
[3] = target: CB2R; settings: cited from earlier work
[4] = test system: CB1R; design: method as in PMID 8070571, PMID 27240274, PMID 24175572; settings: cited from earlier work
[5] = test system: CB1R; test: Literature affinity of drug-like ligands, CB1R (Figure 2); type: binding; settings: from literature Ki values
[6] = target: T1, human CB2R (Homo sapiens, UniProt P34972); test: [3H]CP55,940 displacement assay on CHO membranes, CB2R; type: binding
T1 construct: host or cells: CHO-K1 (CHOK1hCB2_bgal)
T1 sequence (P34972 whole entry): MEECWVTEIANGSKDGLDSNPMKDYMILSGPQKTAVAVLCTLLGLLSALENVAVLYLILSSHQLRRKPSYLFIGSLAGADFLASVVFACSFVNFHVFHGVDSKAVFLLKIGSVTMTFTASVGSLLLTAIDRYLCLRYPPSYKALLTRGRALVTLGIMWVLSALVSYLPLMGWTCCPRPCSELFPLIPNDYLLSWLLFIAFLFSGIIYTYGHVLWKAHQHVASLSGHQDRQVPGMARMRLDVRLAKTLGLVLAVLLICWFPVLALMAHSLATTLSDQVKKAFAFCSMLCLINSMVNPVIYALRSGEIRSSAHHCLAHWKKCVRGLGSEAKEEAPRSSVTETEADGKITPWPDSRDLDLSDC

[7] = target: T2, human CB1R on live SNAP-CB1R-HEK293TR cells (Homo sapiens, UniProt P21554); type: cell-based; settings: 250 nM probe
T2 construct: expressed in transfected cells; host or cells: HEK293TR (tetracycline-inducible)
T2 sequence (P21554 91-472): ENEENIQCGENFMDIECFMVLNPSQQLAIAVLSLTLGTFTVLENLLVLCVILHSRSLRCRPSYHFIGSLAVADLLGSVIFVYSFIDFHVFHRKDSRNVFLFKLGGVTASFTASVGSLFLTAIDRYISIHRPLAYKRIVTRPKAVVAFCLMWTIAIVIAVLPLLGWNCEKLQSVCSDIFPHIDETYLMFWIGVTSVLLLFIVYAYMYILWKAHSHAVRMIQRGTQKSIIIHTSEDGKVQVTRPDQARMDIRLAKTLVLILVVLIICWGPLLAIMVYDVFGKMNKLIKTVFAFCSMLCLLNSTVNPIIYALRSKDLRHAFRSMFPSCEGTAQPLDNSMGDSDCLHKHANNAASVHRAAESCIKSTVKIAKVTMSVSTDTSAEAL
Experimental: (§1) Human CB1R HEK293TR cells (same transfected cell line as for TR-FRET binding assay was used, see above) were maintained in a humidified environment at 37 °C and 5% CO2 in DMEM with 10% FBS containing blasticidin (5 μg/mL; Invitrogen) and (Zeocin; 20 μg/mL; Invitrogen).
(§2) […] The cell nuclei were stained using 0.9 μM Hoechst 33342 for 1 h incubation. After replacement of medium to serum-free conditions without Phenol red (20 μL), fluorescent probes were added (10 μL) and tested at 250 nM concentration. In case of blocking experiments, nuclei-stained cells were incubated with inhibitors (5 μM) for 30 min under serum-free conditions before probe administration. Confocal live cell imaging was performed using the Opera Phenix High Content Screening System (Revvity) at 22 °C. The probe fluorescence was monitored by kinetic measurements of 10 min with a break for probe administration. The fluorescence of one image per sample was captured using a water immersion objective (63×, NA 1.15, field of view 0.21 × 0.21 mm) at each time point. Probe detection was realized using the appropriate laser for excitation and filter for fluorescence emission. Image acquisition parameters, including laser power, offset, and gain settings, were kept constant.

[8] = test system: human CB1R on live SNAP-CB1R-HEK293TR cells; type: cell-based
Experimental: as §1, §2

[9] = target: T3, CB2R-HEK293TR (Homo sapiens, UniProt P34972); test: Live cell confocal imaging, CB2R-HEK293TR cells; type: cell-based; settings: 250 nM probe, induced CB2R expression
T3 construct: expressed in transfected cells; host or cells: HEK293TR (tetracycline-inducible)
T3 sequence (P34972 whole entry): as the sequence (P34972 whole entry) above
Experimental: Cells were plated onto a 384-well microplate (PhenoPlate, Revvity), at a density of 3500 cells/well (40 μL) with 1 μg/mL tetracycline for receptor-inducible expression and incubated for 48 h. The cell nuclei were stained using 0.9 μM Hoechst 33342 for 1 h incubation. After replacement of medium to serum-free conditions without Phenol red (20 μL), fluorescent probes were added (10 μL) and tested at 250 nM concentration. In case of blocking experiments, nuclei-stained cells were incubated with inhibitors (5 μM) for 30 min under serum-free conditions before probe administration. Confocal live cell imaging was performed using the Opera Phenix High Content Screening System (Revvity) at 22 °C. The probe fluorescence was monitored by kinetic measurements of 10 min with a break for probe administration. The fluorescence of one image per sample was captured using a water immersion objective (63×, NA 1.15, field of view 0.21 × 0.21 mm) at each time point. Probe detection was realized using the appropriate laser for excitation and filter for fluorescence emission. Image acquisition parameters, including laser power, offset, and gain settings, were kept constant.

[10] = Photophysical characterization in PBS; type: physicochemical; settings: PBS pH 7.4
[11] = target: T4, hCB1R (Homo sapiens, UniProt P21554); test: [3H]CP55,940 displacement assay on CHO membranes, CB1R; type: binding; design: host or cells: CHO-K1 (CHOK1hCB1_bgal)
Target sequence in this assay (P21554 whole entry): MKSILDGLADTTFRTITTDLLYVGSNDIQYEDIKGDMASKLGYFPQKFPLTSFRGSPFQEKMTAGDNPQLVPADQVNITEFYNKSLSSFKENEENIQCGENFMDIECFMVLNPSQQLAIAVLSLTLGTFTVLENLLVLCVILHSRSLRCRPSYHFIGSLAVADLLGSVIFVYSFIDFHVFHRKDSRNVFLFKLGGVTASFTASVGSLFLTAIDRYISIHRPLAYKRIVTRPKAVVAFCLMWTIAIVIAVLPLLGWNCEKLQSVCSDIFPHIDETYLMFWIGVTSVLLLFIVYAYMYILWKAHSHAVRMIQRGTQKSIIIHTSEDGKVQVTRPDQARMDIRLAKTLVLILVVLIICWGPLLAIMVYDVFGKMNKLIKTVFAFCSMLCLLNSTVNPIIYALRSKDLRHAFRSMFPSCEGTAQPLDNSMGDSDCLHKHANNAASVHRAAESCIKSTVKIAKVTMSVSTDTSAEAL

[12] = target: T4, hCB1R; test: HTRF cAMP assay, agonist / inverse agonist mode; type: cell-based; design: expressed in transfected cells; host or cells: CHO
Target sequence in this assay (P21554 whole entry): as above

[13] = target: T4, hCB1R; test: HTRF cAMP assay, antagonist mode (forskolin with CP55,940)
Target sequence in this assay (P21554 whole entry): as above
Experimental: The homogeneous time-resolved fluorescence (HTRF) cAMP assay was conducted following the manufacturer’s protocol for the cAMP-Gs Dynamic kit. […] After 15 min, reactions were stopped by the 1× cAMP-d2 conjugate in lysis buffer (5 μL/well), followed by 1× anti-cAMP cryptate conjugate in lysis buffer (5 μL/well). Following a 1 h incubation at room temperature, the plates were read in a Revvity Envision reader for time-resolved fluorescence resonance energy transfer detection at 620 and 665 nm. The HTRF ratio versus compound concentrations was plotted using Prism 8.1 (GraphPad). HTRF ratio = (signal 665 nm/signal 620 nm) × 10^4.

[14] = target: T4, hCB1R; test: TR-FRET fluorescent ligand binding (saturation and kinetics), HEK293TR-hCB1R cell membranes; design: a truncated CB1R variant, CB1R91-472 was used to facilitate the FRET; expressed in transfected cells; host or cells: HEK293TR (tetracycline-inducible, pcDNA4/TO)
Target sequence in this assay (P21554 91-472): as the sequence (P21554 91-472) above

[15] = target: rCB1R; settings: cited from earlier work
[16] = target: mCB1R; settings: at 1 μM; cited from earlier work
[17] = target: hCB2R; design: method as in PMID 29314831; settings: cited from earlier work
[18] = fluorescent probe, direct association kinetics

CCCCCCC(C)(C)c1cc(O)c2c(c1)OC(C)(C)c1ccc(CNCCCCCCNC(=O)CCCCCC[N+]3=C(/C=C/C=C/C=C4/N(C)c5ccc(S(=O)(=O)O)cc5C4(C)C)C(C)(C)c4cc(S(=O)(=O)[O-])ccc43)cc1-2 [ABP511]
Ki [1]: 3.5 nM

COCCOc1ncc(C(=O)NC[C@](C)(O)C2CC2)nc1-c1ccc(Cl)cc1 [Compound 9]
Ki [2]: 47.5 nM | Ki [3]: > 475 nM | Functional profile at CB1R (in words) [4]: inverse agonist

CC(C)[C@H](NC(=O)c1nn(Cc2cccc(F)c2)c2ccccc12)C(N)=O [Compound 10, AB-FUBINACA 3-F benzyl]
Ki(CB2R)/Ki(CB1R) selectivity [5]: 4 fold | Ki [2]: 12.6 nM | Ki [3]: 52.5 nM | Functional profile at CB1R (in words) [4]: agonist

CCC(CC)(NC(=O)c1cc(-c2cc(C(F)(F)F)ccc2C(F)(F)F)n(C[C@H]2CCCO2)c1C)C(=O)NCCOCCOCCNC(=O)c1ccc2c(c1)C(=O)OC21c2ccc(N(C)C)cc2Oc2cc(N(C)C)ccc21 [Compound 29]
hCB2R % displacement at 10 µM ([6]; [3H]CP55,940 displacement at 10 µM compound, ± SEM): 18 ± 5% | Ki ([6]; read-out: hCB2R Ki, [3H]CP55,940 displacement, CHO membranes stably expressing human CB2R, means of three experiments): > 10000 nM | Staining of CB1R on induced CB1R-HEK293TR cells ([7]; confocal microscopy): selectively stain and visualize CB1R | Time to staining of CB1R ([7]; induced CB1R-HEK293TR cells): ≤ 10 min | Staining of uninduced CB1R-HEK293TR cells ([8]; 250 nM probe, no CB1R expression): no staining | Passive permeation of outer cell membrane ([8]; concluded from intracellular staining in live CB1R-HEK293TR cells): able to passively permeate the outer cell membrane | Staining of CB2R-HEK293TR cells [9]: no staining | Abs (absorbance maximum) [10]: 555 nm | Em (emission maximum) [10]: 585 nm | QY (quantum yield) [10]: 36.60% and 37% | hCB1R pKi ± SEM ([11]; [3H]CP55,940 displacement, CHO membranes): 5.68 ± 0.29 | Ki(CB2R)/Ki(CB1R) ([11]; radioligand binding Ki ratio): > 4.8 | Ki ([11]; read-out: hCB1R Ki, [3H]CP55,940 displacement, CHO membranes stably expressing human CB1R, means of three experiments): 2080 nM | Emax [12]: -64% | Functional activity at CB1R (in words) ([12]; CB1R cAMP HTRF assay): inverse agonists | Functional activity CB1R (cAMP assay) pEC50 or pIC50 ± SEM ([12]; inverse agonists, n.a. is no activity): 6.99 ± 0.09 | IC50 ([12]; read-out: Functional activity (cAMP assay) IC50, cells stably expressing hCB1R, HTRF cAMP, inverse agonists, n.a. denotes no activity): 102 nM | Antagonist activity (cAMP assay) pEC50 or pIC50 ± SEM ([13]; antagonist mode, n.a. is no activity): 5.7 ± 0.16 | Emax ([13]; read-out: Variation of Emax): -88% | koff [14, 18]: 0.00433 s⁻¹ | kon [14, 18]: 13500 M⁻¹ s⁻¹ | residence time ([14]; fluorescent probe, read-out: RT (residence time)): 3.85 min | Kd ([14]; read-out: kinetic KD, fluorescent probe): 365 nM | Kd ([14]; read-out: saturation binding KD, TR-FRET saturation binding after 60 min): 335 nM

Cc1c(C(=O)NN2CCCCC2)nn(-c2ccc(Cl)cc2Cl)c1-c1ccc(-c2ccc(CCCNC(=O)c3ccc4c(c3)C(=O)OC43c4ccc(N(C)C)cc4Oc4cc(N(C)C)ccc43)cc2)cc1 [Compound T1117]
Kd [15]: 460 ± 80 nM | Ki(mCB1R): displacement [16]: 10%

CCCCCCC(C)(C)c1cc(O)c2c(c1)OC(C)(C)[C@@H]1CC=C(CNC(=O)CCCCCNC(=O)c3ccc(-c4c5ccc(=N)c(S(=O)(=O)O)c-5oc5c(S(=O)(=O)O)c(N)ccc45)c(C(=O)O)c3)C[C@@H]21 [HU210-Alexa488]
Ki [1]: 27 ± 4 nM | Ki [17]: 800 ± 200 nM
